Measured values published in paper PMC7316778 (Nature Communications, 2020).
“And” between values parts separate entries of the source, which are not always exact repeats. Equal values may be shown once. Read-outs that look alike come from different tables or passages of the source.

How the values were obtained:
Assay in all cases: SelectScreen kinase assay
DYRK4 = DYRK4 (Homo sapiens, UniProt Q9NR20); type: biochemical
CDK2/cyclin A1 = CDK2/cyclin A1 (Homo sapiens, UniProt P24941)
Method: (§1) Selectivity profiling assays were performed by the Invitrogen SelectScreen™ Services. […] The concentration of ATP was selected to be equal to the KM, unless indicated otherwise.

PIP4K2A = PIP4K2A (Homo sapiens, UniProt P48426); conditions: 1 h, 1 μM WEL028, 1 h preincubation
Method: as §1

PIM3 = PIM3 (Homo sapiens, UniProt Q86V86)
Method: as §1

TYK2 = TYK2 (Homo sapiens, UniProt P29597)
Chain of TYK2 (P29597 whole entry): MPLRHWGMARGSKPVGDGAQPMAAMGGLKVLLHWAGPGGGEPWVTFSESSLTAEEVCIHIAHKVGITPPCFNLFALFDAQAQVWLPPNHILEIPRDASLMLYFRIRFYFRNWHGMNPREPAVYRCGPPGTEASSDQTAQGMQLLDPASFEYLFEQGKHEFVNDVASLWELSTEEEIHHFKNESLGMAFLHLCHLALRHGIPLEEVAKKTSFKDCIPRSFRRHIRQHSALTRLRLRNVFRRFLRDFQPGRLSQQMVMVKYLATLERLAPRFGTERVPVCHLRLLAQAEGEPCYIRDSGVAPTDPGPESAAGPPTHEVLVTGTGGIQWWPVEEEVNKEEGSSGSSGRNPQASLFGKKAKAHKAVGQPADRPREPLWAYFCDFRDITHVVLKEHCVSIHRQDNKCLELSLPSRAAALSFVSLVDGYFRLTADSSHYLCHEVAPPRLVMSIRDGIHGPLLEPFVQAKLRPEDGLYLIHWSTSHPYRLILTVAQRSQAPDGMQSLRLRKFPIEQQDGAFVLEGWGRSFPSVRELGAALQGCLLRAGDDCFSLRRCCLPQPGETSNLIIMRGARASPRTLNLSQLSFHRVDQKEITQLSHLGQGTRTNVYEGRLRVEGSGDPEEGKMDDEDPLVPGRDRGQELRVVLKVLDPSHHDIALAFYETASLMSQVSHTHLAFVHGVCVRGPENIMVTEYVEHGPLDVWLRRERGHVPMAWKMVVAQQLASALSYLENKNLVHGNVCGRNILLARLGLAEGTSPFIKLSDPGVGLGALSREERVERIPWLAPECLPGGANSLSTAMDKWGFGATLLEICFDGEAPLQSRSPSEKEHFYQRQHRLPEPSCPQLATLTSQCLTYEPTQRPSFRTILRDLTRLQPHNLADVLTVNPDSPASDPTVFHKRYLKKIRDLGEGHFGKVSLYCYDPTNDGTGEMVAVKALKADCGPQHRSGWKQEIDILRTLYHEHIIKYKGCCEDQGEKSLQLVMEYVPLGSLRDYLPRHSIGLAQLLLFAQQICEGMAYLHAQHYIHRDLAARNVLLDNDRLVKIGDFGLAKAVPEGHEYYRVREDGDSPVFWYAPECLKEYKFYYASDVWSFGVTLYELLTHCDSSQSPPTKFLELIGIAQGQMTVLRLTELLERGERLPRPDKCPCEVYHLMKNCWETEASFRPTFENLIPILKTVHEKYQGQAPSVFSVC
Method: as §1

TLK1 = TLK1 (Homo sapiens, UniProt Q9UKI8)
Method: as §1

FYN A = FYN A (Homo sapiens, UniProt P06241)
Chain of FYN A (P06241 whole entry): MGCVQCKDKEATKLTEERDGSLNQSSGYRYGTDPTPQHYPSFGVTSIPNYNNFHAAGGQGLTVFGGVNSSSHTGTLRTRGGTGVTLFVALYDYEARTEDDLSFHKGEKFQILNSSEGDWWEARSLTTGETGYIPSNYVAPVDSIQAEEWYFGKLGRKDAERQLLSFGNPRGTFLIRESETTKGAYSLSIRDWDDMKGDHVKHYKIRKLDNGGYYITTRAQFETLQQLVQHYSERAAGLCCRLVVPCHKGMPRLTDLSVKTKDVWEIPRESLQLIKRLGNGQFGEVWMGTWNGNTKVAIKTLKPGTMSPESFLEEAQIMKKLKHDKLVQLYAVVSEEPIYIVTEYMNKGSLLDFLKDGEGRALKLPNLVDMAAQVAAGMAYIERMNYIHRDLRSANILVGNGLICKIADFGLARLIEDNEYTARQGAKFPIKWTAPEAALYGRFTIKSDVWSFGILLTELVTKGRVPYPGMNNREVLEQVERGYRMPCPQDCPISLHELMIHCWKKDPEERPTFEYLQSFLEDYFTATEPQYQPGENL
Method: as §1

ACVR1 (ALK2) = ACVR1 (ALK2) (Homo sapiens, UniProt Q04771)
Method: as §1

VRK2 = VRK2 (Homo sapiens, UniProt Q86Y07)
Chain of VRK2 (Q86Y07 whole entry): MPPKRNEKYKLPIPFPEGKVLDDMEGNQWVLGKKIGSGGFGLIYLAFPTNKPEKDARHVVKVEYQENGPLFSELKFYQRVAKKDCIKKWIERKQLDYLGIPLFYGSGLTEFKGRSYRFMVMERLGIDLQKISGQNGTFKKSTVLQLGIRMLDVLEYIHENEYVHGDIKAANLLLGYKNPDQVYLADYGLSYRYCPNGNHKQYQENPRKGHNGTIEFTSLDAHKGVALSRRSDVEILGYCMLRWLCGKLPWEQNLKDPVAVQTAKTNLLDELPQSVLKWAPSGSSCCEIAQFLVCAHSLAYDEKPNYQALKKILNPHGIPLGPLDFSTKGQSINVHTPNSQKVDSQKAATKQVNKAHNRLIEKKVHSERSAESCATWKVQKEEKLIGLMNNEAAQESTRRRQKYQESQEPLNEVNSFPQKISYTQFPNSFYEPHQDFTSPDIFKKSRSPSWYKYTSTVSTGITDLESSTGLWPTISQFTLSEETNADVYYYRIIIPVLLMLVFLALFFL
Method: as §1

CDK5 (Inactive) = CDK5 (Inactive) (Homo sapiens, UniProt Q00535)
Method: as §1

TNIK = TNIK (Homo sapiens, UniProt Q9UKE5)
Chain of TNIK (Q9UKE5 whole entry): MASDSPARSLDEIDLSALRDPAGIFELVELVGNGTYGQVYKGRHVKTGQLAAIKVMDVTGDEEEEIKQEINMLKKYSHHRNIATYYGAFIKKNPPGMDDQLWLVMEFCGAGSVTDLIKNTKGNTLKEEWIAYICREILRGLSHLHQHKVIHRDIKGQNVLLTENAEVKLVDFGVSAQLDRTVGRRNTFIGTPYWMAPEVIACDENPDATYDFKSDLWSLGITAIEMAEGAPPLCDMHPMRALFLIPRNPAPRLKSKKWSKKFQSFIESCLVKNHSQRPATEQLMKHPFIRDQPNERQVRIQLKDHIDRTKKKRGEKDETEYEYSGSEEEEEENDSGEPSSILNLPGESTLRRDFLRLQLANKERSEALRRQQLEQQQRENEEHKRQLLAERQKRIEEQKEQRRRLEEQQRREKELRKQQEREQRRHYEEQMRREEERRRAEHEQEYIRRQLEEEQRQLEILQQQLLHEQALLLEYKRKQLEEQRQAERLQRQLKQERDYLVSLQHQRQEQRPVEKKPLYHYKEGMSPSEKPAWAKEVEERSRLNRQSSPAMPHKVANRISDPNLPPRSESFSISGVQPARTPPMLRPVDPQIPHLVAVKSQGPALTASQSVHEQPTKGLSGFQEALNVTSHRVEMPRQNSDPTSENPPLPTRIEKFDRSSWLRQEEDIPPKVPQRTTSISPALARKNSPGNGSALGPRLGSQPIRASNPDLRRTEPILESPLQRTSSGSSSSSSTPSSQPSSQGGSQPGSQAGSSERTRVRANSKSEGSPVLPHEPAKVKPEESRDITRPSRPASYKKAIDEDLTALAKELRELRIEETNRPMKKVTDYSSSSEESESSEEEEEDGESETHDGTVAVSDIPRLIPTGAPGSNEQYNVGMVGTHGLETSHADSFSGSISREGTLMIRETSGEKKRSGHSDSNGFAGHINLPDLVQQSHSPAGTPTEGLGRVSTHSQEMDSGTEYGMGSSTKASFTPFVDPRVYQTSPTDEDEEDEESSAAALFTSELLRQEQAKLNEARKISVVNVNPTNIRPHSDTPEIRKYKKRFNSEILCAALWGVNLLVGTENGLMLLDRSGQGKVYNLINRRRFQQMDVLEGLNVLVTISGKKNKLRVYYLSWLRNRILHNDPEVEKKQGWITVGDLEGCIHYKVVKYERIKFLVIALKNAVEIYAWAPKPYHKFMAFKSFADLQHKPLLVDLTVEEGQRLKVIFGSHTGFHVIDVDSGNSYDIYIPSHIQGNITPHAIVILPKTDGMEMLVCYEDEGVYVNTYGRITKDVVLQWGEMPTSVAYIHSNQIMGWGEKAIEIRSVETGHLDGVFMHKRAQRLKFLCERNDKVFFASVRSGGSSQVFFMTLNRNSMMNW
Method: as §1

SRMS (Srm) = SRMS (Srm) (Homo sapiens, UniProt Q9H3Y6)
Chain of SRMS (Srm) (Q9H3Y6 whole entry): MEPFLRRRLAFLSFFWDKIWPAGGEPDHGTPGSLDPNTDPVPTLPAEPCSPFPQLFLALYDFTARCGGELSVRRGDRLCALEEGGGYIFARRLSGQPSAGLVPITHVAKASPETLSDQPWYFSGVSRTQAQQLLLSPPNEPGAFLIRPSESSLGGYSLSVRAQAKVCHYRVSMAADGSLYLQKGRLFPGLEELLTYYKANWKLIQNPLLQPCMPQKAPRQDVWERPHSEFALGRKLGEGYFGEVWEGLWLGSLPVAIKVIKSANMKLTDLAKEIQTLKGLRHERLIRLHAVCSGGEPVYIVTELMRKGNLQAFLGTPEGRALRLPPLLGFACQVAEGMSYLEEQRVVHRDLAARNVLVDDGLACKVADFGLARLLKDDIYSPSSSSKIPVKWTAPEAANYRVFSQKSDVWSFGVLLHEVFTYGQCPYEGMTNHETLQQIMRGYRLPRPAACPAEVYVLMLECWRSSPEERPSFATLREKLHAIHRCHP
Method: as §1

STK3 (MST2) = STK3 (MST2) (Homo sapiens, UniProt Q13188)
Method: as §1

PIK3C2A (PI3K-C2 alpha) = PIK3C2A (PI3K-C2 alpha) (Homo sapiens, UniProt O00443); conditions: 1 h, 1 μM WEL028, 1 h preincubation
Method: as §1

PIP5K1C = PIP5K1C (Homo sapiens, UniProt O60331)
Method: as §1

PIP5K1A = PIP5K1A (Homo sapiens, UniProt Q99755)
Chain of PIP5K1A (Q99755 whole entry): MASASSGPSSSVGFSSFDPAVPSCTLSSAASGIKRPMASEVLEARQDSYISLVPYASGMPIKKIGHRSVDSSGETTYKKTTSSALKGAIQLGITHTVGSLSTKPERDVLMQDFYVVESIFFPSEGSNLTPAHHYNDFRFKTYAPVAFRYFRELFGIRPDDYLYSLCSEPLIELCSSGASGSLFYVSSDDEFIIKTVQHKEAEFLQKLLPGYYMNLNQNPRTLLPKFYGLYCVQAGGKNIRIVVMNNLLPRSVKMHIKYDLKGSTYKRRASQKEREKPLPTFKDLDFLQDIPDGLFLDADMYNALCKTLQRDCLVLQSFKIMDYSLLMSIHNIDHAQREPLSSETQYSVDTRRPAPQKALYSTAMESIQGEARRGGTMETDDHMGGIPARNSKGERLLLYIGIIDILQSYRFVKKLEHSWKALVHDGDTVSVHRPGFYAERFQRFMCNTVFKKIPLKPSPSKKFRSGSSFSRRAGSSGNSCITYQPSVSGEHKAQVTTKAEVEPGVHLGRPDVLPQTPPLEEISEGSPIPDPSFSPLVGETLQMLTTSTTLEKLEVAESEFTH
Method: as §1

CSNK1G1 (CK1 gamma 1) = CSNK1G1 (CK1 gamma 1) (Homo sapiens, UniProt Q9HCP0); conditions: for Inhibition at 1 µM (%): CSNK1G1 (CK1 gamma 1), ZLYTE, ATP Km app
Chain of CSNK1G1 (CK1 gamma 1) (Q9HCP0 whole entry): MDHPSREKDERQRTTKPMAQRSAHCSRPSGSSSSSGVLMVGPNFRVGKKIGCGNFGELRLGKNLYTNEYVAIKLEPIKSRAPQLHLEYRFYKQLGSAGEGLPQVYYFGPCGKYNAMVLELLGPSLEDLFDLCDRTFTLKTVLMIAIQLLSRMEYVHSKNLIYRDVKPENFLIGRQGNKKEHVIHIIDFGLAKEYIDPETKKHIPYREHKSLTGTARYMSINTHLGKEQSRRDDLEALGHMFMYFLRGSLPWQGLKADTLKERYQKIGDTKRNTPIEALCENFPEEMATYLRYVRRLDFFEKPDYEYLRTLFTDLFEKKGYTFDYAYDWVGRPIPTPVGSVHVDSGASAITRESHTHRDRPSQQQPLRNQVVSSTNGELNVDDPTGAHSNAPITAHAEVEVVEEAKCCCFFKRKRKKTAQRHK
Method: as §1

FGFR2 = FGFR2 (Homo sapiens, UniProt P21802); conditions: for Inhibition at 1 µM (%): FGFR2, ZLYTE, ATP Km app
Method: as §1

MAP4K2 (GCK) = MAP4K2 (GCK) (Homo sapiens, UniProt Q12851)
Method: as §1

ULK3 = molecular target: T1, ULK3 (Homo sapiens, UniProt Q6PHR2)
T1 sequence (Q6PHR2 1-472): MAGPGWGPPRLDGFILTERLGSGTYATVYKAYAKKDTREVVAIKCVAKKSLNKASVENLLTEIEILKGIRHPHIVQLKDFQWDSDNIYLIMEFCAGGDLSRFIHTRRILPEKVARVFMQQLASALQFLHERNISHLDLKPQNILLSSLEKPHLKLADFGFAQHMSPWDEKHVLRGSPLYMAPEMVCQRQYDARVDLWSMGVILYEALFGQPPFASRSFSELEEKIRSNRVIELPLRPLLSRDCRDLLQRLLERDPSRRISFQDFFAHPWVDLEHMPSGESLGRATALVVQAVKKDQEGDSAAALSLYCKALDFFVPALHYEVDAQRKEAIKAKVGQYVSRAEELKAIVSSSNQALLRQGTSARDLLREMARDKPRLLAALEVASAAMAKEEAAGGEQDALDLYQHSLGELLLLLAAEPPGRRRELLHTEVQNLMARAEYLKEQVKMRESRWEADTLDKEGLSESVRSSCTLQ
Method: as §1

MAP3K10 (MLK2) = MAP3K10 (MLK2) (Homo sapiens, UniProt Q02779)
Method: as §1

PAK4 = PAK4 (Homo sapiens, UniProt O96013)
Method: as §1

MYLK2 (skMLCK) = MYLK2 (skMLCK) (Homo sapiens, UniProt Q9H1R3); conditions: for Inhibition at 1 µM (%): MYLK2 (skMLCK), ZLYTE, ATP Km app
Method: as §1

NTRK3 (TRKC) = NTRK3 (TRKC) (Homo sapiens, UniProt Q16288)
Method: as §1

[1] = 1 h, 1 μM WEL028, 1 h preincubation
[2] = 1 µM, ZLYTE, ATP Km app, listed as WEL028, 1 µM
[3] = read-out: Inhibition at 1 µM (%), 1 µM, LanthaScreen Binding
[4] = 1 µM, LanthaScreen Binding, listed as WEL028, 1 µM

## C#CCOc1ccc(Nc2ncc(Cl)c(Nc3ccccc3NC(=O)C=C)n2)c(OC)c1 [Compound 6]
DYRK4; [1]
  inhibition at 1 µM: 0%
DYRK4; DYRK4, 1 µM, ZLYTE, ATP Km app, listed as WEL028, 1 µM
  Inhibition at 1 µM (%): -4% and 4%
CDK2/cyclin A1; 1 μM WEL028, 1 h preincubation
  Inhibition (%): 5%
CDK2/cyclin A1; CDK2/cyclin A1, 1 µM, LanthaScreen Binding, listed as WEL028, 1 µM
  Inhibition at 1 µM (%): 7%
CDK2/cyclin A1; read-out: Inhibition at 1 µM (%), CDK2/cyclin A1, 1 µM, LanthaScreen Binding
  inhibition at 1 µM: 4%
PIP4K2A
  inhibition at 1 µM: -10%
PIM3; [1]
  inhibition at 1 µM: 0%
PIM3; PIM3, 1 µM, ZLYTE, ATP Km app, listed as WEL028, 1 µM
  Inhibition at 1 µM (%): -1% and 1%
TYK2; 1 μM WEL028, 1 h preincubation
  Inhibition (%): -1%
TYK2; [2]
  Inhibition at 1 µM (%): -6% and 4%
TLK1; [1]
  inhibition at 1 µM: 1%
TLK1; [3]
  inhibition at 1 µM: 2%
FYN A; [1]
  inhibition at 1 µM: 3%
FYN A; FYN A, 1 µM, LanthaScreen Binding, listed as WEL028, 1 µM
  Inhibition at 1 µM (%): -1% and 7%
ACVR1 (ALK2); [1]
  inhibition at 1 µM: 2%
ACVR1 (ALK2); read-out: Inhibition at 1 µM (%), ACVR1 (ALK2), 1 µM, LanthaScreen Binding
  inhibition at 1 µM: 3%
VRK2; [4]
  Inhibition at 1 µM (%): 19%
VRK2; [1]
  inhibition at 1 µM: 16%
VRK2; [3]
  inhibition at 1 µM: 14%
CDK5 (Inactive); [1]
  inhibition at 1 µM: 3%
CDK5 (Inactive); CDK5 (Inactive), 1 µM, LanthaScreen Binding, listed as WEL028, 1 µM
  Inhibition at 1 µM (%): 2%
CDK5 (Inactive); read-out: Inhibition at 1 µM (%), CDK5 (Inactive), 1 µM, LanthaScreen Binding
  inhibition at 1 µM: 3%
TNIK; [4]
  Inhibition at 1 µM (%): 4%
TNIK; [1]
  inhibition at 1 µM: 5%
TNIK; [3]
  inhibition at 1 µM: 6%
SRMS (Srm); [2]
  Inhibition at 1 µM (%): 8%
SRMS (Srm); [1]
  inhibition at 1 µM: 7%
SRMS (Srm); read-out: Inhibition at 1 µM (%), 1 µM, ZLYTE, ATP Km app
  inhibition at 1 µM: 6%
STK3 (MST2); 1 µM, ZLYTE, ATP Km app
  Inhibition at 1 µM (%): 15%
STK3 (MST2); [1]
  inhibition at 1 µM: 5%
PIK3C2A (PI3K-C2 alpha)
  inhibition at 1 µM: 5%
PIP5K1C; PIP5K1C, Adapta, ATP 10, listed as WEL028, 1 µM
  Inhibition at 1 µM (%): 1%
PIP5K1C; read-out: Inhibition at 1 µM (%), PIP5K1C, Adapta, ATP 10
  inhibition at 1 µM: 2%
PIP5K1A; [1]
  inhibition at 1 µM: -3%
PIP5K1A; PIP5K1A, 1 µM, Adapta, ATP 10, listed as WEL028, 1 µM
  Inhibition at 1 µM (%): 1% and -7%
CSNK1G1 (CK1 gamma 1); 1 μM WEL028, 1 h preincubation
  Inhibition (%): 4%
CSNK1G1 (CK1 gamma 1)
  Inhibition at 1 µM (%): 2%
CSNK1G1 (CK1 gamma 1); listed as WEL028, 1 µM
  Inhibition at 1 µM (%): 7%
FGFR2; [1]
  inhibition at 1 µM: 7%
FGFR2
  Inhibition at 1 µM (%): 11%
FGFR2; listed as WEL028, 1 µM
  Inhibition at 1 µM (%): 4%
MAP4K2 (GCK); [1]
  inhibition at 1 µM: -12%
MAP4K2 (GCK); MAP4K2 (GCK), 1 µM, ZLYTE, ATP Km app
  Inhibition at 1 µM (%): -23%
ULK3; 1 μM WEL028, 1 h preincubation
  Inhibition (%): 26%
ULK3; [4]
  Inhibition at 1 µM (%): 27%
ULK3; [3]
  inhibition at 1 µM: 25%
MAP3K10 (MLK2); [1]
  inhibition at 1 µM: 4%
MAP3K10 (MLK2); MAP3K10 (MLK2), 1 µM, LanthaScreen Binding, listed as WEL028, 1 µM
  Inhibition at 1 µM (%): 5%
MAP3K10 (MLK2); read-out: Inhibition at 1 µM (%), MAP3K10 (MLK2), 1 µM, LanthaScreen Binding
  inhibition at 1 µM: 4%
PAK4; [1]
  inhibition at 1 µM: -4%
PAK4; PAK4, 1 µM, ZLYTE, ATP Km app, listed as WEL028, 1 µM
  Inhibition at 1 µM (%): -8% and 1%
MYLK2 (skMLCK); [1]
  inhibition at 1 µM: -3%
MYLK2 (skMLCK)
  Inhibition at 1 µM (%): 2%
MYLK2 (skMLCK); listed as WEL028, 1 µM
  Inhibition at 1 µM (%): -8%
NTRK3 (TRKC); [1]
  inhibition at 1 µM: 4%
NTRK3 (TRKC); NTRK3 (TRKC), 1 µM, ZLYTE, ATP Km app, listed as WEL028, 1 µM
  Inhibition at 1 µM (%): 0% and 8%
